Source: ChEMBL document CHEMBL1201862, “PubChem BioAssay data set” (2004)
The source made the active and inactive calls. Rule as the data show it: actives have a measured IC50 and inactives only a lower limit.

Molecular target: Envelope glycoprotein gp160 (Human immunodeficiency virus 1, UniProt Q6QLK5)
Experiment: cell-free HIV fusion peptide-binding blockers – biochemical, uHTS, fluorescence dequenching, […] (AID 1986)

Chain of Envelope glycoprotein gp160 (Q6QLK5 whole entry, the tested form may be a part): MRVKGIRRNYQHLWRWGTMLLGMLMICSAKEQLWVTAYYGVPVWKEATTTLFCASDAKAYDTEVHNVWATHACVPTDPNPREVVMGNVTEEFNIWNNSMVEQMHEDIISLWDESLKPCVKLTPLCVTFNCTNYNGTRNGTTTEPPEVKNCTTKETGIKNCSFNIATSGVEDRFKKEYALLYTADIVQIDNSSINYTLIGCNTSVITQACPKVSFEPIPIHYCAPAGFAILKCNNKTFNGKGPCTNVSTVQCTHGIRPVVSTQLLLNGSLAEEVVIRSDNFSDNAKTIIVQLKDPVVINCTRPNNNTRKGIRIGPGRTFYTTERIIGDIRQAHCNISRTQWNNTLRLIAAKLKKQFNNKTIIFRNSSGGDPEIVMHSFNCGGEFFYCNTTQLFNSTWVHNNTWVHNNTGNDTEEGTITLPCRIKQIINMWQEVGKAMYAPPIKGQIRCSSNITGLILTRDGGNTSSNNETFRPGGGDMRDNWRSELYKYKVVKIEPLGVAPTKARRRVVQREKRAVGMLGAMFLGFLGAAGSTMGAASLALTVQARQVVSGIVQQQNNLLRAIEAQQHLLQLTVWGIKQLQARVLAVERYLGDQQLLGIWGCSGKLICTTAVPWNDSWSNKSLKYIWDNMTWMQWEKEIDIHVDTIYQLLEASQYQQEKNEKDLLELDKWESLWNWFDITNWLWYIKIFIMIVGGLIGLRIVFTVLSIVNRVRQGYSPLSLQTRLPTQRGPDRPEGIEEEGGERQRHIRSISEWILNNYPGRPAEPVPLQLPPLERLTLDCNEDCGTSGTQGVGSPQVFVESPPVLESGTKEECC

Row | Structure (SMILES) | IC50
1 | O=C(O)CSc1cc(C(=O)c2cc(F)ccc2O)cn2c(=O)c3c(-c4ccccc4)csc3nc12 | 14.9 µM (active)
2 | N#Cc1c(-c2cccs2)nc(SCc2ccc(Cl)cc2)[nH]c1=O | 11.1 µM (active)
